# Laboratory results as given in patent US20260248752A1, “Oral Care Product And Methods Of Use And Manufacture Thereof” (Colgate-Palmolive Company, priority 2019, published 2026).
# Key:
# Assay type in all cases: cell-based, Streptococcus mutans
# S. mutans biofilm [1] = test: pH drop of S. mutans biofilm from glycolysis (total AUC of delta pH); details: for Total AUC of Δ pH: after 24 hours of exposure and addition of growth media, lower AUC = less pH reduction; for Δ (vs control) of total AUC of Δ pH: difference from control (no arginine or xylitol) AUC 29.5
# From the text: Such drops in pH can be harmful to the health of the oral cavity.
# S. mutans = test: Growth inhibition of S. mutans in culture by neat solutions of xylitol and/or arginine; details: 24 hours after administration of neat solutions, absence of added sucrose
# Procedure: The ability of xylitol to inhibit the growth of S. mutans is tested in combination with arginine in culture. Percent growth inhibition is measured at 24 hours after administration of the neat solutions listed in the below table.
# Results in Table 2 are obtained in the absence of added sucrose.
# S. mutans biofilm [2] = test: S. mutans biofilm formation by crystal violet staining (OD 590 nm); details: for S. mutans biofilm formation, crystal violet staining (OD 590 nm), mean: 24 hours of exposure
# Procedure: Determining Biofilm Formation with varying amounts of Xylitol: In a separate experiment, simple solutions with only xylitol at varying concentrations, tested in combination with a control, are also tested to determine the minimum amount of xylitol needed to prevent S. mutans biofilm accretion in culture. It is determined that at least 5% xylitol is necessary to inhibit biofilm accretion in culture after 24 hours of exposure.
# planktonic S. mutans = test: Minimum inhibitory concentration of xylitol, planktonic S. mutans growth (OD 610 nm); details: for growth of S. mutans, optical density (OD 610 nm), mean: 24 hours of exposure
# Procedure: Determining Minimum Inhibitory Concentration (MIC) of Xylitol: In a separate experiment, simple solutions with only xylitol at varying concentrations, tested in combination with a control, are also tested to determine the minimum inhibitor concentration of xylitol needed to inhibit planktonic S. mutans growth in culture.
# [3] = in culture after 24 hours of exposure
compound,measurement,setting,value
"N=C(N)NCCC[C@H](N)C(=O)O [1.5% arginine, arginine]",Total AUC of Δ pH,S. mutans biofilm [1],28.9
same,Δ (vs control) of total AUC of Δ pH,S. mutans biofilm [1],0.6
same,% growth inhibition relative to control,S. mutans,4.1%
OC[C@@H](O)[C@H](O)[C@@H](O)CO [Xylitol],minimum amount of xylitol needed to prevent S. mutans biofilm accretion,S. mutans biofilm [2]; [3],at least 5%
same,"S. mutans biofilm formation, crystal violet staining (OD 590 nm), mean",S. mutans biofilm [2]; xylitol 0.15625%,0.327
same,"S. mutans biofilm formation, crystal violet staining (OD 590 nm), mean",S. mutans biofilm [2]; xylitol 0.3125%,0.338
same,"S. mutans biofilm formation, crystal violet staining (OD 590 nm), mean",S. mutans biofilm [2]; xylitol 0.625%,0.301
same,"S. mutans biofilm formation, crystal violet staining (OD 590 nm), mean",S. mutans biofilm [2]; xylitol 1.25%,0.254
same,"S. mutans biofilm formation, crystal violet staining (OD 590 nm), mean",S. mutans biofilm [2]; xylitol 2.5%,0.221
same,"S. mutans biofilm formation, crystal violet staining (OD 590 nm), mean",S. mutans biofilm [2]; xylitol 5%,0.136
same,"S. mutans biofilm formation, crystal violet staining (OD 590 nm), mean",S. mutans biofilm [2]; xylitol 10%,0.122
same,"S. mutans biofilm formation, crystal violet staining (OD 590 nm), mean",S. mutans biofilm [2]; xylitol 20%,0.123
same,"S. mutans biofilm formation, crystal violet staining (OD 590 nm), mean",S. mutans biofilm [2]; xylitol 40%,0.109
same,minimum inhibitory concentration of xylitol needed to inhibit planktonic S. mutans growth,planktonic S. mutans; [3],at least 10%
same,"growth of S. mutans, optical density (OD 610 nm), mean",planktonic S. mutans; xylitol 0.15625%,0.256
same,"growth of S. mutans, optical density (OD 610 nm), mean",planktonic S. mutans; xylitol 0.3125%,0.268
same,"growth of S. mutans, optical density (OD 610 nm), mean",planktonic S. mutans; xylitol 0.625%,0.241
same,"growth of S. mutans, optical density (OD 610 nm), mean",planktonic S. mutans; xylitol 1.25%,0.188
same,"growth of S. mutans, optical density (OD 610 nm), mean",planktonic S. mutans; xylitol 2.5%,0.165
same,"growth of S. mutans, optical density (OD 610 nm), mean",planktonic S. mutans; xylitol 5%,0.114
same,"growth of S. mutans, optical density (OD 610 nm), mean",planktonic S. mutans; xylitol 10%,0.097
same,"growth of S. mutans, optical density (OD 610 nm), mean",planktonic S. mutans; xylitol 20%,0.089
same,"growth of S. mutans, optical density (OD 610 nm), mean",planktonic S. mutans; xylitol 40%,0.071
same,Total AUC of Δ pH,S. mutans biofilm [1]; listed as 1% xylitol,27.8
same,Total AUC of Δ pH,S. mutans biofilm [1]; listed as 5% xylitol,25.3
same,Total AUC of Δ pH,S. mutans biofilm [1]; listed as 10% xylitol,24.0
same,Δ (vs control) of total AUC of Δ pH,S. mutans biofilm [1]; listed as 1% xylitol,1.7
same,Δ (vs control) of total AUC of Δ pH,S. mutans biofilm [1]; listed as 5% xylitol,4.2
same,Δ (vs control) of total AUC of Δ pH,S. mutans biofilm [1]; listed as 10% xylitol,5.5
same,% growth inhibition relative to control,S. mutans; listed as 1% xylitol,17.9%
same,% growth inhibition relative to control,S. mutans; listed as 5% xylitol,40.3%
same,% growth inhibition relative to control,S. mutans; listed as 10% xylitol,45.6%
